We go through 24 compounds from US20240208953A1, “"Cyclopenta[c]pyrrol Negative Allosteric Modulators of NR2B"” (Novartis AG, priority 2021, published 2024).

One series has as its target NR2B (Rattus norvegicus (Rat), UniProt Q00960). The experiment in a line: NR2B rat cortical neuron calcium influx assay. It is filed as cell-based. The following applies: rat cortical neurons, glutamate and glycine stimulated calcium influx. An excerpt:
Example 1: NR2B Rat Cortical Neuron Calcium Influx Assay Protocol
Embryonic day 18 timed pregnant Sprague Dawley rats were euthanized according to Institutional Animal Care and Use Committee (IACUC) protocol. After cutting medially through the skin and exposing the uterus and embryos, fetuses were removed and placed in cold Hibernate medium. Each embryo's brain was extracted and cerebral cortices were isolated by removing the midbrain and meninges. The dissected cortices were then dissociated into the neurons using papain dissociation system (Worthington Biochemical Corporation) according the manufacturer's protocol.
Dissociated neurons were counted and plated into 384-well poly-D-lysine coated plates (Corning® BioCoat™) at a density of 20,000 cells/well in 30 μL of Neurobasal/B27 complete medium. Neurons were cultured at 37° C. for 2 days. On the assay day, medium was removed and cells were incubated with 20 μL/well of calcium dye (Calcium 6 Assay Kit, Molecular Devices) suspended in HBSS with 1.8 mM Ca^2+ (Ca-HBSS) according to the manufacturer's instruction.
Compounds of interest from 10 mM stock were serially diluted into 3× of desired concentrations in 1.8 mM Ca-HBSS, and 10 μL were added to the wells. Compound and the neurons were incubated at 37° C. for 2 hours in the dark.
On FDSS7000EX (Hamamatsu Photonics), a fluorescence measuring instrument, 10 μL of 4× ligand solution containing glutamate and glycine made in 1.8 mM Ca^2+-HBSS were added to each well. The fluorescent signals were collected before and after the addition of ligands for a total of 2 minutes. The data were converted to a ratio of the peak fluorescence to the fluorescence at the beginning of the measurement.
Each data point was measured in duplicates. Dose response curves were used to identify IC50 and maximal inhibition values. IC50 represents the concentration in μM of compound at which there is a half-maximal compound effect. Maximal inhibition of a compound is expressed as a percent of the highest inhibition of activity over a no compound control.

For a further series, the target named is P-glycoprotein (P-gp) (Homo sapiens (Human), UniProt P08183). In words: MDCK-MDR1 permeability / efflux assay. Format: in vitro ADME. Conditions: for efflux ratio at 120 min, 10 μM: dog, MDCK-MDR1, pH 7.4, efflux ratio, read-out: MDCK-MDR1 ER. On the procedure: Example 4. Experimental Measurement of Efflux with MDCK-MDR1 Protocol
Cell Culture. MDCK-MDR1 cells were cultured at 37° C. under a 5% CO2 atmosphere, at 95% relative humidity in DMEM containing 10% FBS, penicillin-streptomycin (100 μg/mL), and 2 mM Ala-Gln. Cells were passaged every 3-4 days. For assay purposes, cells were seeded at a density of approximately 265,000 cells/cm^2 of a 96-well Transwell plate (Corning Life Sciences, Acton, MA) and cultured in the same media noted above for a period of 4 days.
Assay. The determination of the apparent permeability (Papp) was performed in both the A→B (apical to basal) and B→A (basal to apical) directions where each compound was assayed in triplicate. The zwitterion bestatin, a poorly permeably compound, was used as marker of monolayer integrity. To initiate the assay, media was aspirated, and the cells and basal chambers were washed three times with Hank's Balanced Salt Solution (HBSS) containing 10 mM HEPES (pH 7.4). Compound test solutions were prepared in triplicate in HBSS containing 10 mM HEPES (pH 7.4) and 0.02% bovine serum albumin (BSA) to a final concentration of 10 μM and centrifuged for 2 min at 4000×g, then applied to the donor compartment at time zero. Additionally, at time zero, a 37° C. solution without test articles (HBSS+10 mM HEPES (pH 7.4) plus 0.02% BSA) was added to the receiver chamber of the Transwell plate. A time zero sample of the donor solution was also sampled for further analysis. The assay was conducted for a period of 120 min at 37° C. without shaking. At the time of assay termination, samples were taken from each donor compartment, and each acceptor compartment of the Transwell plate. To each of the 0 and 120 min samples was added an internal standard solution containing glyburide in water:acetonitrile, 50:50 (v:v). Concentration curves were prepared using a Labcyte Echo in the same matrix noted above. Samples and concentration curve samples were centrifuged for 10 min at 4000×g and subsequently analyzed by mass spectroscopy.
Mass Spectroscopy. Assay samples were loaded onto a RapidFire C4 cartridge by means of a RapidFire autosampler (Agilent, Santa Clara, CA). […] Mass spectroscopy was performed using an AB Sciex AP15500 (Sciex, Frammingham, MA) equipped with a turbo ion spray source. The analyte concentration was calculated from the chromatographic peak area ratio of analyte to internal standard (glibenclamide, m/z 494→169), using Multiquant software V3.0 (Sciex, Framingham, MA).
Calculations. Papp values were determined as
Percent recovery values were determined as:
where VA is the volume of the acceptor (mL), S is the surface area of the membrane, D0 is the donor solution concentration at t=0, D120 is the donor solution concentration at t=120, A120 is the acceptor solution concentration at t=120, and t=time (seconds).
The suitability of a compound for oral dosing and/or for use as a CNS therapeutic is usually conducted by MDCK-MDR1 permeability assay to investigate its drug efflux potential mediated by P-glycoprotein (P-gp). MDCK-MDR1 permeability has been used as a predictor of blood brain barrier permeability in terms of efflux ratio (ER).

pIC50: −log10 of the molar value.

NR2B, sequence (Q00960 27-1482, other chains not shown): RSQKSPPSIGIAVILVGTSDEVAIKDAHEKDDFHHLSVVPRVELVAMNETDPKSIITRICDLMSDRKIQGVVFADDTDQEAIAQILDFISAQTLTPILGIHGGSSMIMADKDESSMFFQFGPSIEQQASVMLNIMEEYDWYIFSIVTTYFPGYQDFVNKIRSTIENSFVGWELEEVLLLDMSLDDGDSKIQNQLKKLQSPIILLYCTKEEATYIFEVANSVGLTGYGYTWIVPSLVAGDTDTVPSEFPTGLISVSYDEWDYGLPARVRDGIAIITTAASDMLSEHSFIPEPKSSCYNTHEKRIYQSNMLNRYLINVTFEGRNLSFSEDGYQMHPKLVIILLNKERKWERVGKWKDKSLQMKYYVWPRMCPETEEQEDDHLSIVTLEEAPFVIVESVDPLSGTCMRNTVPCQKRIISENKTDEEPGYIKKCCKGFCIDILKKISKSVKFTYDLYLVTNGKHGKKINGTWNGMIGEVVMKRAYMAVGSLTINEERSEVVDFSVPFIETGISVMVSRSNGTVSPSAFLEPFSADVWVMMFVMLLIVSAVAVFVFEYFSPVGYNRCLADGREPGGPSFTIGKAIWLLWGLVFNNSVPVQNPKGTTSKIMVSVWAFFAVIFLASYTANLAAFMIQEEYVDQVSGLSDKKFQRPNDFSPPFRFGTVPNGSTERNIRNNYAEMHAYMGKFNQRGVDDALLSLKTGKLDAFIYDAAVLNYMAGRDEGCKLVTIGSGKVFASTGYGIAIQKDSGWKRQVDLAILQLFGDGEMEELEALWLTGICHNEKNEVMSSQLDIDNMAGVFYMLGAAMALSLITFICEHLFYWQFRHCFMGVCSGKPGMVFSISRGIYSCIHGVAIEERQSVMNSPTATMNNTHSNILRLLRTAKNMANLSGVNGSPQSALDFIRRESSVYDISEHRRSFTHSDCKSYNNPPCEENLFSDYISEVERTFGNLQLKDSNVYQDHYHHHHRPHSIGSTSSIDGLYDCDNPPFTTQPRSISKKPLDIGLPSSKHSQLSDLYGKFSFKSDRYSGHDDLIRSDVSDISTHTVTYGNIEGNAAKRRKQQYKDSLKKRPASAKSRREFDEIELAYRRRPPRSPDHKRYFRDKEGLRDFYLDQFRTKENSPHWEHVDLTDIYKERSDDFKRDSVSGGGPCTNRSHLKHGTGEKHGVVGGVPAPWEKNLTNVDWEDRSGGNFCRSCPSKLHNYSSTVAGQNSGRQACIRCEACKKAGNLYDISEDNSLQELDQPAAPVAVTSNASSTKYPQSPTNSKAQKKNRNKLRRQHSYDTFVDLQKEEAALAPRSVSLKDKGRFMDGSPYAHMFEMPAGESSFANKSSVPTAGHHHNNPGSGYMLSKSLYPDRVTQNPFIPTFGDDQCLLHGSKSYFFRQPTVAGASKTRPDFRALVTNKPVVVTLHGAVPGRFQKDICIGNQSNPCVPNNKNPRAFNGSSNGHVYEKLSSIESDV
P-glycoprotein (P-gp), sequence (P08183 whole entry): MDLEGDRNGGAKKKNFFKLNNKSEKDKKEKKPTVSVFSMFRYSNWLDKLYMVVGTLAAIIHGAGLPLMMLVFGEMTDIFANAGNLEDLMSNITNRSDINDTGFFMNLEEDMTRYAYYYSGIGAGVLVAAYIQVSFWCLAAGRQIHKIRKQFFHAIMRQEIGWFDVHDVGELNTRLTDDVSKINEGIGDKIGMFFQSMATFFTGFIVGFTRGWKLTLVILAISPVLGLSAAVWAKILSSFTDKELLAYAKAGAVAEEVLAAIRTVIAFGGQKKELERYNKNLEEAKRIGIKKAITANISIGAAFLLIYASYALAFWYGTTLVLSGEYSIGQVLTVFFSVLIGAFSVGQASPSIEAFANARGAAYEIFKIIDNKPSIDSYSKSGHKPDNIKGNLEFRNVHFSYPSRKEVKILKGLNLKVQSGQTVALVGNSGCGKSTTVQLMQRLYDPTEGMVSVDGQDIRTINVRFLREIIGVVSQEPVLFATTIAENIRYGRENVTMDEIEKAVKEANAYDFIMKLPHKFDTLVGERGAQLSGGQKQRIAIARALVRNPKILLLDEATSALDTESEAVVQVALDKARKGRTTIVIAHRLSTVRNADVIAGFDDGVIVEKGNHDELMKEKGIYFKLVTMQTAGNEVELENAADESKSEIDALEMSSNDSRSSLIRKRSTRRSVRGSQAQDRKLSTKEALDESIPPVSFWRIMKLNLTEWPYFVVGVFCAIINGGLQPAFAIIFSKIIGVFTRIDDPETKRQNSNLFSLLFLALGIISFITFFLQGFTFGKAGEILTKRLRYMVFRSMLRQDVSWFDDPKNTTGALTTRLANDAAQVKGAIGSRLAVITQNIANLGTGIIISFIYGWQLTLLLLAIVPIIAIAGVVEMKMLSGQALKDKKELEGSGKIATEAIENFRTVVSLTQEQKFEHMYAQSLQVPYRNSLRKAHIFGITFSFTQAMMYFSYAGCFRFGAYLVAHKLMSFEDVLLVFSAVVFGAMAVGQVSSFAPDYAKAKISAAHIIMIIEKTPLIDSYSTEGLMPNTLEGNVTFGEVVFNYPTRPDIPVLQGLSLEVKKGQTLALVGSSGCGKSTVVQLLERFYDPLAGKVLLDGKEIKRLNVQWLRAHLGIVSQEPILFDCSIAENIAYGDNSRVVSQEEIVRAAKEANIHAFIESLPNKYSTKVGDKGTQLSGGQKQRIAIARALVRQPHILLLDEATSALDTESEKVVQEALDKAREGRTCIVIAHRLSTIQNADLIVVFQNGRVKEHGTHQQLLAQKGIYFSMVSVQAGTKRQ

What is called pIC50 is the negative decadic logarithm of the IC50, by convention in mol/L. With `O=C1CCc2cc([C@@H](O)CN3C[C@@H]4C[C@@H](Oc5c(F)cccc5F)C[C@]4(O)C3)ccc2N1` (single isomer, unassigned) [Example 27C], the pIC50 at NR2B was 8.77. At P-glycoprotein (P-gp), the efflux ratio at 120 min, 10 μM stood at 1.52.

Take `O=C1CCc2cc([C@@H](O)CN3C[C@H]4C[C@H](Oc5ccccc5F)C[C@@]4(O)C3)ccc2N1` [Example 5A, 6-((R)-2-((3aS,5S,6aR)-5-(2-fluorophenoxy)-3a-hydroxyhexahydrocyclopenta[c]pyrrol-2(1H)-yl)-1-hydroxyethyl)-3,4-dihydroquinolin-2(1H)-one]: the pIC50 on NR2B is 7.42. The efflux ratio at 120 min, 10 μM on P-glycoprotein (P-gp) is 1.05.

Regarding `O=c1[nH]c2ccc([C@H](O)CN3C[C@H]4C[C@H](Oc5ccccc5)C[C@@]4(O)C3)cc2s1` (single isomer, unassigned) [Example 17B], the pIC50 on NR2B is 10.31. Besides, on P-glycoprotein (P-gp), the efflux ratio at 120 min, 10 μM is 2.06.

For `O=c1[nH]c2c(F)cc([C@H](O)CN3C[C@H]4C[C@H](Oc5ccccc5)C[C@@]4(O)C3)cc2cc1F` (single isomer, unassigned) [Example 20B], on NR2B, the pIC50 was 9.48. For the same compound, at P-glycoprotein (P-gp), the efflux ratio at 120 min, 10 μM worked out at 3.32.

As for `O=C1CCc2cc([C@H](O)CN3C[C@@H]4C[C@@H](Oc5ccccc5F)C[C@]4(O)C3)cc(F)c2N1` (single isomer, unassigned) [Example 6D], the pIC50 at NR2B is 8.62. Also, the efflux ratio at 120 min, 10 μM on P-glycoprotein (P-gp) was found to be 1.29.

As for `O=C1Nc2cc(F)c([C@H](O)CN3C[C@H]4C[C@H](Oc5ccccc5)C[C@@]4(O)C3)cc2CO1` (single isomer, unassigned) [Example 36B], on NR2B, the pIC50 was 8.82. For the same compound, the efflux ratio at 120 min, 10 μM on P-glycoprotein (P-gp) stood at 2.44.

On to `O=C1Nc2c(F)cc([C@@H](O)CN3C[C@H]4C[C@H](Oc5ccccc5)C[C@@]4(O)C3)c(F)c2CO1` (single isomer, unassigned) [Example 37A], for which, at NR2B, the pIC50 is 7.48. Besides, on P-glycoprotein (P-gp), the efflux ratio at 120 min, 10 μM is 1.15.

Regarding `O=C1CCc2cc([C@H](O)CN3C[C@@H]4C[C@@H](Oc5cccc(F)c5)C[C@]4(O)C3)ccc2N1` (single isomer, unassigned) [Example 23D], at NR2B, the pIC50 was 8.89. Also, the efflux ratio at 120 min, 10 μM on P-glycoprotein (P-gp) stood at 3.28.

Take `O=C1CCc2cc([C@@H](O)CN3C[C@@H]4C[C@@H](Oc5cccc(F)c5)C[C@]4(O)C3)ccc2N1` (single isomer, unassigned) [Example 23C]: the pIC50 at NR2B was 8.85. Besides, the efflux ratio at 120 min, 10 μM on P-glycoprotein (P-gp) came out at 3.75.

Regarding `O=C1CCCc2cc([C@@H](O)CN3C[C@H]4C[C@H](Oc5ccccc5)C[C@@]4(O)C3)ccc2N1` (single isomer, unassigned) [Example 7A], the pIC50 at NR2B was 7.85. Besides, the efflux ratio at 120 min, 10 μM at P-glycoprotein (P-gp) is 2.73.

With `O=C1CCc2cc([C@@H](O)CN3C[C@H]4C[C@H](Oc5ccccc5F)C[C@@]4(O)C3)cc(F)c2N1` (single isomer, unassigned) [Example 6A], the pIC50 at NR2B is 6.28. Moreover, the efflux ratio at 120 min, 10 μM at P-glycoprotein (P-gp) was 1.01.

On to `CC1(C)Cc2cc([C@@H](O)CN3C[C@H]4C[C@H](Oc5ccccc5)C[C@@]4(O)C3)ccc2NC1=O` (single isomer, unassigned) [Example 11A], for which the pIC50 on NR2B was 8.72. Also, the efflux ratio at 120 min, 10 μM at P-glycoprotein (P-gp) turned out to be 1.74.

Regarding `O=C1CCc2cc([C@@H](O)CN3C[C@H]4C[C@H](Oc5ccccc5F)[C@H](O)[C@@]4(O)C3)cc(F)c2N1` (single isomer, unassigned) [Example 29A], the pIC50 at NR2B is 6.89. On P-glycoprotein (P-gp), the efflux ratio at 120 min, 10 μM worked out at 3.23.

For the compound `O=C1Cc2cc([C@H](O)CN3C[C@@H]4C[C@@H](Oc5ccccc5)[C@@H](O)[C@]4(O)C3)ccc2N1` [Example 3B], the pIC50 on NR2B is under 5.00. For the same compound, the “MDCK-MDR1 ER” value on P-glycoprotein (P-gp) (efflux ratio, 10 μM, 120 min) was 6.36.

`O=C1Cc2cc([C@H](O)CN3C[C@H]4C[C@H](Oc5ccccc5)C[C@@]4(O)C3)ccc2N1` [Example 2B, 5-((S)-1-hydroxy-2-((3aS,5S,6aR)-3a-hydroxy-5-phenoxyhexahydrocyclopenta[c]pyrrol-2(1H)-yl)ethyl)indolin-2-one]: on NR2B, the pIC50 was 7.20. Moreover, the efflux ratio at 120 min, 10 μM on P-glycoprotein (P-gp) worked out at 3.54.

Turning to `O=C1Nc2c(F)cc([C@@H](O)CN3C[C@H]4C[C@H](Oc5ccccc5F)C[C@@]4(O)C3)cc2CO1` (single isomer, unassigned) [Example 35A], the pIC50 on NR2B is 8.92. In addition, the efflux ratio at 120 min, 10 μM at P-glycoprotein (P-gp) came out at 1.

Consider `O=C1CCc2cc([C@H](O)CN3C[C@@H]4C[C@@H](Oc5cc(F)ccc5F)C[C@]4(O)C3)ccc2N1` (single isomer, unassigned) [Example 26D], for which the pIC50 at NR2B is 8.72. Further, the efflux ratio at 120 min, 10 μM at P-glycoprotein (P-gp) was 2.52.

As for `O=c1ccc2cc([C@H](O)CN3C[C@H]4C[C@H](Oc5ccccc5)C[C@@]4(O)C3)ccc2[nH]1` (single isomer, unassigned) [Example 8B], on NR2B, the pIC50 is 9.24. Further, on P-glycoprotein (P-gp), the efflux ratio at 120 min, 10 μM came to 3.46.

On to `O=C1CCc2cc([C@H](O)CN3C[C@@H]4C[C@@H](Oc5ccccc5)[C@@H](O)[C@]4(O)C3)ccc2N1` [Example 4D, 6-((S)-2-((3aR,4R,5R,6aS)-3a,4-dihydroxy-5-phenoxyhexahydrocyclopenta[c]pyrrol-2(1H)-yl)-1-hydroxyethyl)-3,4-dihydroquinolin-2(1H)-one], for which the pIC50 at NR2B is 6.60. For the same compound, at P-glycoprotein (P-gp), the efflux ratio at 120 min, 10 μM was found to be 6.87.

Consider `O=C1CCc2cc([C@@H](O)CN3C[C@@H]4C[C@@H](Oc5ccccc5)[C@@H](O)[C@]4(O)C3)ccc2N1` [Example 4C, 6-((R)-2-((3aR,4R,5R,6aS)-3a,4-dihydroxy-5-phenoxyhexahydrocyclopenta[c]pyrrol-2(1H)-yl)-1-hydroxyethyl)-3,4-dihydroquinolin-2(1H)-one], for which, on NR2B, the pIC50 is 5.52. On P-glycoprotein (P-gp), the efflux ratio at 120 min, 10 μM was found to be 6.75.

Turning to `O=C1COc2cc([C@H](O)CN3C[C@H]4C[C@H](Oc5ccccc5)C[C@@]4(O)C3)cc(F)c2N1` (single isomer, unassigned) [Example 13B], on NR2B, the pIC50 was 7.24. Besides, on P-glycoprotein (P-gp), the efflux ratio at 120 min, 10 μM came out at 1.11.

Consider `O=C1Nc2ccc([C@H](O)CN3C[C@H]4C[C@H](Oc5ccccc5)C[C@@]4(O)C3)cc2CO1` (single isomer, unassigned) [Example 28B], for which the pIC50 on NR2B was 8.77. Besides, at P-glycoprotein (P-gp), the efflux ratio at 120 min, 10 μM was 3.18.

Turning to `O=C1Nc2ccc([C@@H](O)CN3C[C@H]4C[C@H](Oc5ccccc5)C[C@@]4(O)C3)c(F)c2CO1` (single isomer, unassigned) [Example 34A], the pIC50 on NR2B was 8.57. Besides, on P-glycoprotein (P-gp), the efflux ratio at 120 min, 10 μM turned out to be 3.81.

With `O=C1CCc2cc([C@H](O)CN3C[C@H]4C[C@H](Oc5ccccc5)C[C@@]4(O)C3)c(F)cc2N1` (single isomer, unassigned) [Example 10B], the pIC50 at NR2B was 9.25. On P-glycoprotein (P-gp), the efflux ratio at 120 min, 10 μM worked out at 2.49.
